Measured values reported in patent US7524930B2, “Tumor antigen” (Green Peptide Co., Ltd, priority 2003, dated 2009).

Tests used:
HLA-A0201 molecule = target: T1, HLA-A0201 molecule (Homo sapiens, UniProt P04439, D140Y/D185E/D98H/E176V/E277Q/G131W/G231S/I119V/I121R/I166T/I218V/L300P/L318F/N151K/N90K/P208A/P217A/Q86G/Q94H/R138H/R169H/T345S); test: Binding activity of peptide to HLA-A0201 molecule on T2 cells (FACScan, MFI); details: peptide 10 μM, positive and negative controls 898 and 490
T1 construct: endogenous in cells; host or cells: T2 cells (TAP-deficient mutant line)
Description: Binding activity of the peptide to the HLA-A0201 molecule was tested using a T2 cell mutant strain (Cancer Res., 54:1071-1076, 1994. ) The T2 cell expresses the HLA-A2 molecule on a cell surface without binding to a peptide, because of deficiency of TAP. Specifically, the synthesized peptide (10 μM) and the T2 cells were incubated at 26° C. for 3 h and, subsequently, incubated in 5% CO2 and 95% air at 37° C. for 3 h.
Binding affinity of the peptides to HLA-A0201 molecule was expressed as a relative mean fluorescence intensity (MFI) of the HLA-A2 molecule.

[1] = tested on: peripheral blood mononuclear cells derived from a cancer patient; test: CTL induction by peptide from autologous PBMC of cancer patient, IFN-γ production on recognition of target cells (Example 5); type: cell-based, human; details: for IFN-γ production from peripheral blood mononuclear cells in recognition of target cells: PBMC stimulated with 10 μM peptide
Description: Among the peptides that were able to enhance IFN-γ production from the OK-CTLp or OK-CTL clone in Example 4, those from P1 to P19 were examined for their ability to induce CTL from peripheral blood mononuclear cells derived from a cancer patient. The method for inducing CTL by a peptide was according to the well-known method (J. Exp. Med., 187:277-288, 1998; Cancer Res., 59:4056-4063, 1999.) Specifically, autologous peripheral blood mononuclear cells (PBMC) derived from a cancer patient, from whom OK-CTLp was obtained, were incubated together with the peptide (10 μM.) The cells were re-stimulated at day 10 and 14 after the start of culturing, using autologous PBMCs as an antigen presenting cell (APC) which were pulsed with 10 μM of the same peptide for 2 h and exposed to irradiation (30 gray.) At day 21 after the start of culturing, the cells were collected to test for surface phenotype. In addition, the cells were examined for the recognition of various target cells, using IFN-γ production measured by ELISA when they were cultured together with the target cells as an indicator. As a target cells, SW620 cell, CA9-22 cell, and Panc-1 cell, which are the HLA-A2^+ tumor cells, were used.

[2] = tested on: peripheral blood mononuclear cells derived from a cancer patient; test: as above; type: cell-based, human; details: PBMC stimulated with 10 μM peptide

MFI (relative mean fluorescence intensity of the HLA-A2 molecule; binding affinity to HLA-A0201) (HLA-A0201 molecule): 910
Sequence: LIADETSGL [Peptide P3, Gene 1 (UBE2V) 85-93]
Recognition of tumor cells by PBMC stimulated in vitro with peptide (IFN-γ production) ([1]; SW620, CA9-22 and Panc-1 HLA-A2+ tumor cells, result in words): produced IFN-γ in a significant amount
IFN-γ production from peripheral blood mononuclear cells in recognition of target cells ([1]; target CA9-22 (HLA-A0207/24)): 58 pg/mL
IFN-γ production from peripheral blood mononuclear cells in recognition of target cells ([1]; target Panc-1 (HLA-A0201/11)): 289 pg/mL
IFN-γ production from peripheral blood mononuclear cells in recognition of target cells ([1]; target SW620 (HLA-A0201/24)): 188 pg/mL
IFN-γ production from peripheral blood mononuclear cells in recognition of target cells ([2]; target COLO320 (HLA-A24/24)): 44 pg/mL
IFN-γ production from peripheral blood mononuclear cells in recognition of target cells ([2]; target QG56 (HLA-A26/26)): 0 pg/mL
IFN-γ production from peripheral blood mononuclear cells in recognition of target cells ([2]; target RERF-LC-MS (HLA-A11/11)): 0 pg/mL
